Source: ChEMBL document CHEMBL3352371, “Antiadhesive properties of glycoclusters against Pseudomonas aeruginosa lung infection” (J Med Chem, 2014)
pKd: −log10 of the molar value. Active and inactive are the calls of the source. The calls are words filed in the database; no cut-off is given here.

Columns and labels:
[1] = target: T1, PA-I galactophilic lectin (Pseudomonas aeruginosa (strain ATCC 15692 / PAO1 / 1C / PRS 101 / LMG12228), UniProt Q05097); assay: Binding affinity to Pseudomonas aeruginosa LecA by ITC method
T1 sequence (Q05097 whole entry): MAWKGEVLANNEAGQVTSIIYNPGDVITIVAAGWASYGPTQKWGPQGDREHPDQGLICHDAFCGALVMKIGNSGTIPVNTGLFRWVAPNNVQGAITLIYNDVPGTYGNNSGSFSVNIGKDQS

[2] = test system: Pseudomonas aeruginosa; assay: Antimicrobial activity Pseudomonas aeruginosa PAO1 infected C57BL6/J mouse lung injury model assessed as reduction in alveolar-capillary permeability using 5 mM compound pre-treated bacteria for infection; assay type: functional
[3] = test system: Pseudomonas aeruginosa; assay: Inhibition of Pseudomonas aeruginosa PAO1 adhesion to human A549 cells 25 to 2500 uM; assay type: functional
[4] = test system: Pseudomonas aeruginosa; assay: Inhibition of deltalecB mutant expressing Pseudomonas aeruginosa PAO1 adhesion to human A549 cells 25 to 2500 uM; assay type: functional, organism-based
[5] = test system: Pseudomonas aeruginosa; assay: Inhibition of deltalecA mutant expressing Pseudomonas aeruginosa PAO1 adhesion to human A549 cells 25 to 2500 uM; assay type: functional, organism-based
[6] = test system: Pseudomonas aeruginosa; assay: Induction of filamentous-like and spherical bacterial aggregation in Pseudomonas aeruginosa PAO1 at 6 to 6600 uM by optical microscopy; assay type: functional, organism-based
[7] = test system: Pseudomonas aeruginosa; assay: Inhibition of Pseudomonas aeruginosa PAO1 localization at human A549 cell membranes at 250 to 2500 uM by confocal microscopy; assay type: functional, organism-based
[8] = test system: Pseudomonas aeruginosa; assay: Inhibition of biofilm formation of Pseudomonas aeruginosa PAO1 expressing deltalecB mutant at 5 mM after 24 hrs by crystal violet staining; assay type: functional, organism-based
[9] = test system: Pseudomonas aeruginosa; assay: Antimicrobial activity Pseudomonas aeruginosa PAO1 infected C57BL6/J mouse lung injury model assessed as protection against lung infection using 1 to 5 mM compound pre-treated bacteria for infection; assay type: functional, organism-based
[10] = test system: Pseudomonas aeruginosa; assay: Inhibition of biofilm formation of Pseudomonas aeruginosa PAO1 at 5 mM after 24 hrs by crystal violet staining; assay type: functional, organism-based
[11] = test system: Pseudomonas aeruginosa; assay: Antimicrobial activity Pseudomonas aeruginosa PAO1 infected C57BL6/J mouse lung injury model assessed as reduction in alveolar-capillary permeability using 1 mM compound pre-treated bacteria for infection; assay type: functional
[12] = test system: Pseudomonas aeruginosa; assay: Effect on growth of Pseudomonas aeruginosa PAO1 at 0.1 to 5 mM after 24 hrs; assay type: organism-based; details: 5000 µM
[13] = test system: Pseudomonas aeruginosa; assay: Induction of bacterial aggregation in Pseudomonas aeruginosa PAO1 expressing deltalecB mutant assessed as number of aggregates per 100 uL of PBS cell solution at 100 uM by optical microscopy; assay type: functional
[14] = test system: Pseudomonas aeruginosa; assay: Induction of filamentous-like and spherical bacterial aggregation in Pseudomonas aeruginosa PAO1 expressing deltalecB mutant at 6 to 6600 uM by optical microscopy; assay type: functional, organism-based
[15] = test system: Pseudomonas aeruginosa; assay: Inhibition of biofilm formation of Pseudomonas aeruginosa PAO1 at 0.1 mM after 24 hrs by crystal violet staining; assay type: functional, organism-based
[16] = Binding affinity to Pseudomonas aeruginosa LecB by ITC method
[17] = test system: Pseudomonas aeruginosa; assay: Inhibition of biofilm formation of Pseudomonas aeruginosa PAO1 expressing deltalecA mutant at 5 mM after 24 hrs by crystal violet staining; assay type: functional, organism-based
[18] = test system: Pseudomonas aeruginosa; assay: Induction of bacterial aggregation in Pseudomonas aeruginosa PAO1 expressing deltalecA mutant assessed as number of aggregates per 100 uL of PBS cell solution at 100 uM by optical microscopy; assay type: functional, organism-based
[19] = target: T2, PA-I galactophilic lectin (Pseudomonas aeruginosa (strain ATCC 15692 / PAO1 / 1C / PRS 101 / LMG12228)) (UniProt Q05097); assay: Binding affinity to Pseudomonas aeruginosa LecA at 1.5 mM by ITC method
T2 sequence (whole entry): T1 sequence (Q05097 whole entry)

[20] = test system: Pseudomonas aeruginosa; assay: Inhibition of biofilm formation of Pseudomonas aeruginosa PAO1 at 0.1 to 5 mM after 24 hrs by crystal violet staining; assay type: functional, organism-based
[21] = test system: Pseudomonas aeruginosa; assay: Induction of bacterial aggregation in Pseudomonas aeruginosa PAO1 assessed as number of aggregates per 100 uL of PBS cell solution at 100 uM by optical microscopy; assay type: functional
[22] = test system: Pseudomonas aeruginosa; assay: Binding affinity to Pseudomonas aeruginosa LecB at 1.5 mM by ITC method
[23] = test system: Pseudomonas aeruginosa; assay: Inhibition of deltalecA mutant expressing Pseudomonas aeruginosa PAO1 adhesion to human A549 cells 250 to 2500 uM; assay type: functional, organism-based
[24] = test system: Pseudomonas aeruginosa; assay: Inhibition of deltalecA mutant expressing Pseudomonas aeruginosa PAO1 adhesion to human A549 cells <250 uM; assay type: functional, organism-based
[25] = test system: Pseudomonas aeruginosa; assay: Induction of filamentous-like and spherical bacterial aggregation in Pseudomonas aeruginosa PAO1 expressing deltalecA mutant at 6 to 6600 uM by optical microscopy; assay type: functional, organism-based
[26] = test system: Pseudomonas aeruginosa; assay: Induction of bacterial aggregation in Pseudomonas aeruginosa PAO1 expressing deltalecB mutant at 6 to 5000 uM by optical microscopy; assay type: functional, organism-based
[27] = test system: Pseudomonas aeruginosa; assay: Induction of bacterial aggregation in Pseudomonas aeruginosa PAO1 expressing deltalecA mutant at 6 to 5000 uM by optical microscopy; assay type: functional, organism-based
[28] = test system: Pseudomonas aeruginosa; assay: Induction of bacterial aggregation in Pseudomonas aeruginosa PAO1 at 6 to 5000 uM by optical microscopy; assay type: functional, organism-based
[29] = test system: Pseudomonas aeruginosa; assay: Antimicrobial activity Pseudomonas aeruginosa PAO1 infected C57BL6/J mouse lung injury model assessed as effect on alveolar-capillary permeability using 1 mM compound pre-treated bacteria for infection; assay type: functional, organism-based
[30] = test system: Pseudomonas aeruginosa; assay: Antimicrobial activity Pseudomonas aeruginosa PAO1 infected C57BL6/J mouse lung injury model assessed as effect on alveolar-capillary permeability using 5 mM compound pre-treated bacteria for infection; assay type: functional, organism-based

SMILES	inhibition (INH) [3] [%]	inhibition [8]	Activity [13]	pKd [16]	inhibition [17]	Activity [18]	inhibition [20]	Activity [21]	Activity [26]	Activity [27]	Activity [28]	other results
OCc1cn(CCOCCOCCO[C@@H]2O[C@H](CO)[C@H](O)[C@H](O)[C@H]2O)nn1												pKd [1]: 3.82
C[C@@H]1O[C@@H](OCCOCCOCCn2cc(COc3c4cc(C(C)(C)C)cc3Cc3cc(C(C)(C)C)cc(c3OCc3cn(CCOCCOCCO[C@@H]5O[C@@H](C)[C@@H](O)[C@@H](O)[C@@H]5O)nn3)Cc3cc(C(C)(C)C)cc(c3OCc3cn(CCOCCOCCO[C@@H]5O[C@@H](C)[C@@H](O)[C@@H](O)[C@@H]5O)nn3)Cc3cc(C(C)(C)C)cc(c3OCc3cn(CCOCCOCCO[C@@H]5O[C@@H](C)[C@@H](O)[C@@H](O)[C@@H]5O)nn3)C4)nn2)[C@@H](O)[C@H](O)[C@@H]1O	90	Active	50	7.32	Active							inhibition (INH) [2]: 50%; inhibition [4]: inactive; inhibition [5]: Active; Activity [6]: Active; inhibition [7]: Active; Activity [9]: inactive; inhibition [10]: Active; inhibition (INH) [11]: 50%; Activity [12]: Non-toxic; Activity [14]: Active; inhibition [15]: inactive
CC(C)(C)c1cc2c(OCc3cn(CCOCCOCCO[C@@H]4O[C@H](CO)[C@@H](O)[C@H](O)[C@H]4O)nn3)c(c1)Cc1cc(C(C)(C)C)cc(c1OCc1cn(CCOCCOCCO[C@@H]3O[C@H](CO)[C@@H](O)[C@H](O)[C@H]3O)nn1)Cc1cc(C(C)(C)C)cc(c1OCc1cn(CCOCCOCCO[C@@H]3O[C@H](CO)[C@@H](O)[C@H](O)[C@H]3O)nn1)Cc1cc(C(C)(C)C)cc(c1OCc1cn(CCOCCOCCO[C@@H]3O[C@H](CO)[C@@H](O)[C@H](O)[C@H]3O)nn1)C2		inactive	inactive		inactive	inactive	inactive	inactive				Activity [19]: inactive; Activity [22]: inactive
C[C@H]1O[C@@H](OCCOCCOCCn2cc(COc3c4cc(C(C)(C)C)cc3Cc3cc(C(C)(C)C)cc(c3OCc3cn(CCOCCOCCO[C@@H]5O[C@H](CO)[C@H](O)[C@H](O)[C@H]5O)nn3)Cc3cc(C(C)(C)C)cc(c3OCc3cn(CCOCCOCCO[C@@H]5O[C@H](CO)[C@H](O)[C@H](O)[C@H]5O)nn3)Cc3cc(C(C)(C)C)cc(c3OCc3cn(CCOCCOCCO[C@@H]5O[C@H](CO)[C@H](O)[C@H](O)[C@H]5O)nn3)C4)nn2)[C@H](O)[C@@H](O)[C@H]1O	70	Active			Active	inactive						inhibition (INH) [2]: 50%; Activity [6]: Active; inhibition [23]: Active; pKd [1]: 6.75; inhibition [7]: Active; Activity [9]: inactive; inhibition [10]: Active; inhibition (INH) [11]: 50%; Activity [12]: Non-toxic; inhibition [24]: inactive; inhibition [15]: inactive; Activity [25]: inactive
C[C@@H]1O[C@@H](OCCOCCOCCn2cc(CO)nn2)[C@@H](O)[C@H](O)[C@@H]1O				6.52								
CO[C@@H]1O[C@@H](C)[C@@H](O)[C@@H](O)[C@@H]1O	65						inactive		inactive	inactive	inactive	inhibition [4]: inactive; inhibition [5]: Active; Activity [29]: inactive; Activity [30]: inactive
CO[C@H]1O[C@H](CO)[C@@H](O)[C@H](O)[C@@H]1O			inactive			inactive		inactive				
CC(C)(C)c1cc2c(OCc3cn(CCOCCOCCO[C@H]4O[C@H](CO)[C@@H](O)[C@H](O)[C@@H]4O)nn3)c(c1)Cc1cc(C(C)(C)C)cc(c1OCc1cn(CCOCCOCCO[C@H]3O[C@H](CO)[C@@H](O)[C@H](O)[C@@H]3O)nn1)Cc1cc(C(C)(C)C)cc(c1OCc1cn(CCOCCOCCO[C@H]3O[C@H](CO)[C@@H](O)[C@H](O)[C@@H]3O)nn1)Cc1cc(C(C)(C)C)cc(c1OCc1cn(CCOCCOCCO[C@H]3O[C@H](CO)[C@@H](O)[C@H](O)[C@@H]3O)nn1)C2		inactive	11	5.64	inactive			70				
CO[C@H]1O[C@H](CO)[C@H](O)[C@H](O)[C@H]1O			inactive			inactive		inactive	inactive	inactive	inactive	
CO[C@@H]1O[C@H](CO)[C@H](O)[C@H](O)[C@H]1O	30		inactive			inactive	inactive	inactive	inactive	inactive	inactive	inhibition [24]: inactive; Activity [29]: inactive; Activity [30]: inactive
